The record followed here is patent US20140045776A1, “METHOD FOR INCREASING THE SHELF LIFE OF FOOD PRODUCTS” (GALACTIC S.A., priority 2011, published 2014).

For the assay, the system named is aerobic bacteria. Put plainly: Shelf life of minced meat stored at 4° C. (total number of aerobic bacteria). In kind it is cell-based. On the procedure: The usual formulation of a minced meat was prepared with the following ingredients:
Preservatives were added to this basic formulation, the maximum percentage being 4% (of a fermentate having a main-salt concentration of 40%) compared with the whole of the meat-based food product.
The minced meats are prepared according to the following procedure:
a) Preparing of the meat: the meat and fat are cut into small pieces and minced using a mincer having a 4 mm mincing grille. The meat, fat and other ingredients are then disposed by means of a mixer of the Kenwood type having a type K stirring blade. Operate the stirring for 30 seconds (minimum power).
b) Sampling: the product thus obtained is divided into 100 g samples and placed in plastic bags.
c) Storage: the products obtained are packaged in stretch film and stored at a temperature of 4° C.±1° C. for 10 days.
Twice a week, the pH, the activity of the water (Aw) and total number of aerobic bacteria were evaluated on the samples.
The shelf life of the product prepared without a preservative (reference) was compared with that of the product containing standard potassium lactate—Galoflow PL (Galactic SA) and that of the product containing the fermentate obtained by sugar fermentation by Bacillus coagulans spp. […] The results are set out in graph 1. […]

Each structure is given as a SMILES string.

As to `CC(O)C(=O)[O-].[K+]` (centres unmarked) [potassium lactate], the “preservative effect on the meat matrix” value (Example 2, minced meat, each at a concentration not impacting on the taste (0.05% potassium acetate, 2% potassium lactate), graph 2) is given as “preservative effect superior to that of potassium acetate”. Besides, the “effect on shelf life of the product” value (Example 3, minced meat, potassium lactate with main-salt concentration 60% at various concentrations, 4° C., graph 3) is “increases the shelf life of the product”.
